Where two headings read alike, the source gives them in different places.
Molecular target: T1, IL-17A/A (Homo sapiens, UniProt Q16552)
T1 construct: purchased Genscript Z03228
T1 sequence (Q16552 24-155): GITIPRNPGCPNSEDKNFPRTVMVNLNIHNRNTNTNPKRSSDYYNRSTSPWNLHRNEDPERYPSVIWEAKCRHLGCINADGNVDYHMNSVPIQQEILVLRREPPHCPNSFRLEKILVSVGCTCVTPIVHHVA
Test: IL-17A/A HEK-Blue Cell Assay
Assay type: cell-based

[1] = HEK-Blue IL-17A reporter cell line, SEAP readout at A630, 20 hours incubation with IL-17A/A, top concentration 10 uM, 1 uM or 0.3 uM, read-out: IL-17A/A inhibition (pIC50) (converted)
[2] = HEK-Blue IL-17A reporter cell line, SEAP readout at A630, 20 hours incubation with IL-17A/A, top concentration 10 uM, 1 uM or 0.3 uM

Row | IC50 [1] | Structure (SMILES) | also measured
1 | < 10 nM | CCC(=O)N[C@@H](C(=O)N1CCN(C)CC1)[C@@H](C)c1ccc(NC(=O)[C@@H](NC(=O)C(F)(F)c2cncc(C#N)c2)[C@H]2CC[C@H](C)CC2)c(F)c1 [Compound 530] | –
2 | 10 to 100 nM | CCn1nccc1C(=O)N[C@H](C(=O)Nc1ccc([C@H](C)[C@@H](NC(=O)[C@H](C)F)C(=O)N2CCN(C)CC2)cc1F)[C@H]1CC[C@H](C)CC1 [Compound 472] | –
3 | 10 to 100 nM | CCn1nccc1C(=O)N[C@H](C(=O)Nc1ccc([C@H](C)[C@@H](NC(=O)c2cnns2)C(=O)N2CCN(C)CC2)cc1F)C1CCCCC1 [Compound 310] | –
4 | 100 to 10000 nM | CCn1nccc1C(=O)N[C@H](C(=O)Nc1ccc([C@H](C)[C@@H](NC(=O)c2cscn2)C(=O)N2CCN(C)CC2)cc1F)C1CCCCC1 [Compound 682] | –
5 | – | CCC(=O)N[C@H](Cc1ccc(NC(=O)[C@H](Cc2ccc(C(F)(F)F)cc2)NC(=O)c2ccnn2CC)c(F)c1)C(=O)N1CCN(C)CC1 [Compound 723] | IL-17A/A inhibition (pIC50) [2]: X2b (compounds were evaluated up to 1 uM and inhibited activity at 1 uM by less than 20%)
6 | – | CCC(=O)N[C@H](Cc1ccc(NC(=O)[C@@H](NC(=O)c2cc(CC(C)C)nn2CC)C2CCCCC2)c(F)c1)C(=O)N1CCN(C)CC1 [Compound 773] | IL-17A/A inhibition (pIC50) [2]: X1b (compounds were evaluated up to 10 uM and inhibited activity at 10 uM by less than 20%)
7 | – | CCC(=O)N[C@H](Cc1ccc(NC(=O)[C@@H](NC(=O)C(F)(F)c2ccc(=O)n(C)c2)C2CCCCC2)c(F)c1)C(=O)N1CCN(C)CC1 [Compound 713] | IL-17A/A inhibition (pIC50) [2]: X2b (compounds were evaluated up to 1 uM and inhibited activity at 1 uM by less than 20%)
8 | 100 to 10000 nM | CCC(=O)N[C@H](Cc1ccc(NC(=O)[C@@H](NC(=O)c2ccnn2CC)C2CCCCC2)c(F)c1)C(=O)Nc1cccnc1 [Compound 694] | –
9 | – | CCC(=O)N[C@@H](C(=O)N1CCN(C)CC1)[C@@H](C)c1ccc(NC(=O)[C@@H](NC(=O)CC2CCNCC2)C2CCCCC2)c(F)c1 [Compound 741] | IL-17A/A inhibition (pIC50) [2]: X2b (compounds were evaluated up to 1 uM and inhibited activity at 1 uM by less than 20%)
10 | 10 to 100 nM | CCn1nccc1C(=O)N[C@H](C(=O)Nc1ccc(C[C@@H](Nc2ncnc3cnccc23)C(=O)N2CCN(C)CC2)cc1F)C1CCCCC1 [Compound 320] | –
11 | 10 to 100 nM | CCC(=O)N[C@H](Cc1ccc(NC(=O)[C@@H](NC(=O)C(F)(F)c2cccc(C#N)c2)C2CCCCC2)c(F)c1)C(=O)N1CCN(C)CC1 [Compound 302] | –
12 | – | CCC(=O)N[C@H](Cc1ccc(NC(=O)[C@@H](NC(=O)Cc2cccc(O)c2)C2CCCCC2)c(F)c1)C(=O)N1CCN(C)CC1 [Compound 782] | IL-17A/A inhibition (pIC50) [2]: X1b (compounds were evaluated up to 10 uM and inhibited activity at 10 uM by less than 20%)
13 | < 10 nM | CCn1nccc1C(=O)N[C@H](C(=O)Nc1ccc([C@H](C)[C@@H](NC(=O)C(C)(F)F)C(=O)N2CCN(C)[C@@H](C)C2)cc1F)[C@H]1CC[C@H](C)CC1 [Compound 479] | –
14 | 100 to 10000 nM | CCC(=O)N[C@H](Cc1ccc(NC(=O)[C@@H](NC(=O)c2ccnn2CC)C2CCCCC2)c(F)c1)C(=O)N1CCN(C)CC1 [Compound 645] | –
15 | 10 to 100 nM | CCC(=O)N[C@@H](C(=O)N1CCS(=O)(=O)CC1)[C@@H](C)c1ccc(NC(=O)[C@@H](NC(=O)c2ccnn2CC)[C@H]2CC[C@H](C)CC2)c(F)c1 [Compound 392] | –
16 | < 10 nM | CCC(=O)N[C@@H](C(=O)N1C[C@@H](C)N(C)[C@H](C)C1)[C@@H](C)c1ccc(NC(=O)[C@@H](NC(=O)c2nonc2CC)[C@H]2CC[C@H](C)CC2)c(F)c1 [Compound 451] | –
17 | < 10 nM | CCn1nccc1C(=O)N[C@H](C(=O)Nc1ccc([C@H](C)[C@@H](NC(=O)C2CC2)C(=O)N2CCN(C)CC2)cc1F)C1CCCCCC1 [Compound 535] | –
18 | 10 to 100 nM | CCC(=O)N[C@@H](C(=O)N1CCN(C)CC1)[C@@H](C)c1ccc(NC(=O)[C@@H](NC(=O)c2ccnn2CC)C2CCCCCC2)cc1 [Compound 297] | –
19 | – | CCc1nonc1C(=O)N[C@H](C(=O)Nc1ccc([C@H](C)[C@@H](NC(=O)CF)C(=O)N2CCN(C)[C@@H](C)C2)cc1F)[C@H]1CC[C@H](C)CC1 [Compound 510] | IC50: 10 to 100 nM
20 | 100 to 10000 nM | CCn1nccc1C(=O)N[C@H](C(=O)Nc1ccc([C@H](C)[C@@H](NC(=O)c2coc(C)n2)C(=O)N2CCN(C)CC2)cc1F)C1CCCCC1 [Compound 683] | –
21 | < 10 nM | CCC(=O)N[C@@H](C(=O)N1CCN(C)[C@@H](C)C1)[C@@H](C)c1ccc(NC(=O)[C@@H](NC(=O)c2ccnn2CC)[C@H]2CC[C@H](C)CC2)c(F)c1 [Compound 435] | –
22 | < 10 nM | CCC(=O)N[C@@H](C(=O)N1CCC(C)(O)CC1)[C@@H](C)c1ccc(NC(=O)[C@@H](NC(=O)c2conc2CC)C2CCCCCC2)c(F)c1 [Compound 357] | –
23 | < 10 nM | C[C@@H](c1ccc(NC(=O)[C@@H](NC(=O)C(F)(F)c2cccc(C#N)c2)C2CCCCC2)c(F)c1)[C@@H](NC(=O)c1cnns1)C(=O)N1CCN(C)CC1 [Compound 311] | –

Row | IC50 [1] | Structure (SMILES) | also measured
24 | – | CCC(=O)N[C@H](Cc1ccc(NC(=O)[C@@H](NC(=O)c2ccnn2CCO)C2CCCCC2)c(F)c1)C(=O)N1CCN(C)CC1 [Compound 704] | IL-17A/A inhibition (pIC50) [2]: X2a (compounds were evaluated up to 1 uM and did not inhibit activity by >80%, however they showed some activity at 1 uM (less than 80% and more than 20%))
25 | 100 to 10000 nM | CCC(=O)N[C@@H](C(=O)O)[C@@H](C)c1ccc(NC(=O)[C@@H](NC(=O)c2ccnn2CC)C2CCCCCC2)c(F)c1 [Compound 768] | –
26 | 10 to 100 nM | CCc1ccoc1C(=O)N[C@H](C(=O)Nc1ccc([C@H](C)[C@@H](NC(=O)c2cnns2)C(=O)N2CCN(C)CC2)cc1F)[C@H]1CC[C@H](C)CC1 [Compound 409] | –
27 | – | CCC(=O)N[C@@H](C(=O)N1CCN(C)CC1)[C@@H](C)c1ccc(NC(=O)[C@@H](NC(=O)c2cccn2CC2CC2)[C@H]2CC[C@H](C)CC2)c(F)c1 [Compound 283] | IL-17A/A inhibition (pIC50) [2]: A (compounds having a pIC50 of greater than or equal 8 as A)
28 | 10 to 100 nM | CCC(=O)NC(C(=O)N1CCN(Cc2ccccc2)CC1)[C@@H](C)c1ccc(NC(=O)[C@@H](NC(=O)c2ccnn2CC)[C@H]2CC[C@H](C)CC2)c(F)c1 (stereo partly shown) [Compound 367] | –
29 | < 10 nM | CCC(=O)N[C@@H](C(=O)N1CCN(C)CC1)[C@@H](C)c1ccc(NC(=O)[C@@H](NC(=O)C(F)(F)c2cccc(C#N)c2)C2CCCCCC2)c(F)c1 [Compound 260] | –
30 | 10 to 100 nM | CCC(=O)N[C@@H](C(=O)N1CCS(=O)(=O)CC1)[C@@H](C)c1ccc(NC(=O)[C@@H](NC(=O)c2ccnn2CC)C2CCCCCC2)c(F)c1 [Compound 353] | –
31 | 100 to 10000 nM | CCC(=O)N[C@H](Cc1ccc(NC(=O)[C@@H](NC(=O)C(F)(F)c2ccc(OC)nc2)C2CCC(F)(F)CC2)c(F)c1)C(=O)N1CCN(C)CC1 [Compound 215] | –
32 | < 10 nM | CCC(=O)N[C@@H](C(=O)N1CCN(C)CC1)[C@@H](C)c1ccc(NC(=O)[C@@H](NC(=O)c2ccnn2C(C)C)C2CCCCCC2)c(F)c1 [Compound 241] | –
33 | – | CCC(=O)N[C@@H](C(=O)N1CCN(C)CC1)[C@@H](C)c1ccc(NC(=O)C(NC(=O)c2ccnn2CC)C(C)C2CCC(C)CC2)c(F)c1 (single isomer, unassigned) [Compound 585] | IL-17A/A inhibition (pIC50) [2]: X2a (compounds were evaluated up to 1 uM and did not inhibit activity by >80%, however they showed some activity at 1 uM (less than 80% and more than 20%))
34 | 10 to 100 nM | CCC(=O)N[C@@H](C(=O)N1CCN(C)CC1)[C@@H](C)c1ccc(NC(=O)C(NC(=O)c2ccnn2CC)[C@H](C)c2ccccc2)c(F)c1 (stereo partly shown) [Compound 288] | –
35 | < 10 nM | CCc1nonc1C(=O)N[C@H](C(=O)Nc1ccc([C@H](C)[C@@H](NC(=O)[C@H](C)OC)C(=O)N2CCN(C)CC2)cc1F)[C@H]1CC[C@H](C)CC1 [Compound 497] | –
36 | < 10 nM | CCn1nccc1C(=O)N[C@H](C(=O)Nc1ccc([C@H](C)[C@@H](NC(=O)[C@H](C)OC)C(=O)N2CCN(C)CC2)cc1F)[C@H]1CC[C@H](C)CC1 [Compound 476] | –
37 | 100 to 10000 nM | CCn1nccc1C(=O)N[C@H](C(=O)Nc1ccc([C@H](C)[C@@H](NC(=O)c2ccsn2)C(=O)N2CCN(C)CC2)cc1F)C1CCCCC1 [Compound 685] | –
38 | 10 to 100 nM | CCC(=O)N[C@@H](C(=O)N1CCN(C(C)C)CC1)[C@@H](C)c1ccc(NC(=O)[C@@H](NC(=O)c2ccnn2CC)C2CCCCC2)c(F)c1 [Compound 362] | –
39 | < 10 nM | CCC(=O)N[C@@H](C(=O)N1CCN(C)CC1)[C@@H](C)c1ccc(NC(=O)[C@@H](NC(=O)c2nonc2CC)C2CCCCCC2)c(F)c1 [Compound 270] | –
40 | 100 to 10000 nM | CCC(=O)N[C@@H](C(=O)N1CCN(C)CC1)[C@@H](C)c1ccc(NC(=O)[C@@H](NC(=O)C(=O)c2ccc(NS(C)(=O)=O)nc2)C2CCCCCC2)c(F)c1 [Compound 626] | –
41 | 10 to 100 nM | CCC(=O)N[C@@H](C(=O)N1CCN(C)CC1)[C@@H](C)c1ccc(NC(=O)[C@@H](NC(=O)c2cccn2CC)C2CCCCC2)c(F)c1 [Compound 254] | –
42 | 10 to 100 nM | COc1nonc1C(=O)N[C@H](C(=O)Nc1ccc([C@H](C)[C@@H](NC(=O)c2cnns2)C(=O)N2CCN(C)CC2)cc1F)[C@H]1CC[C@H](C)CC1 [Compound 552] | –
43 | 10 to 100 nM | CCC(=O)N[C@@H](C(=O)N1CCN(C)CC1)[C@@H](C)c1ccc(NC(=O)[C@@H](NC(=O)C(F)(F)c2ccc(OC)nc2)C2CCC(F)(F)CC2)c(F)c1 [Compound 220] | –
44 | < 10 nM | CCC(=O)N[C@@H](C(=O)N1CCN(C)[C@H](C)C1)[C@@H](C)c1ccc(NC(=O)[C@@H](NC(=O)c2ccnn2CC)[C@H]2CC[C@H](C)CC2)c(F)c1 [Compound 436] | –
45 | 10 to 100 nM | CCC(=O)N[C@@H](C(=O)N1CCN(C)CC1)[C@@H](C)c1ccc(NC(=O)[C@@H](NC(=O)c2csc3ncccc23)C2CCCCC2)c(F)c1 [Compound 250] | –
46 | 10 to 100 nM | CCC(=O)N[C@@H](C(=O)N1CCN(CCO)CC1)[C@@H](C)c1ccc(NC(=O)[C@@H](NC(=O)c2nonc2CC)[C@H]2CC[C@H](C)CC2)c(F)c1 [Compound 445] | –

Source: patent US12421212B2, “Substituted benzenecarboxamides as IL-17A modulators” (DiCE Alpha, Inc., priority 2019, dated 2025)
